These results are taken from ChEMBL document CHEMBL3507680, “University of Dundee, Gates Library screen for HepG2 cell viability”.

The data set is described as follows: Human HepG2 cell viability assay in 384 well format. The format is toxicity, cell-based. Further details: dose 125 nL, time 70.5 hour; concentration not given beside the values. The note with it: HepG2 cells, read-out: Inhibition.
Consider `Cc1ccc2nc(-c3nc4c([nH]3)CCCNC4=O)cn2c1`, for which the cytotoxicity at 70.5 h is -10.1%.

As for `Cc1cnc(C(=O)N2CCCC3(CCN(c4cnn(C)c4)C3=O)C2)cn1` (stereo unspecified), the cytotoxicity at 70.5 h was -3.83%.

As to `CC(c1ccc(F)cc1F)N1CCN(CCN2CCCC2=O)CC1` (stereo unspecified), the cytotoxicity at 70.5 h was -4.44%.

Consider `CC(=O)c1ccc(-n2ccc3nc(N4CCCC4)ncc3c2=O)cc1`, for which the cytotoxicity at 70.5 h was -5.08%.

As for `NCc1cccc(-c2cccnc2C(=O)NCCCN2CCOCC2)c1`, the cytotoxicity at 70.5 h was -3.76%.

Consider `CCc1noc(CN(C)CCC(=O)Nc2ccc(Cl)cc2)n1`, for which the cytotoxicity at 70.5 h was -0.958%.

Turning to `Fc1cccc(-c2nc(CN3CCCC3Cn3cccn3)co2)c1` (stereo unspecified), the cytotoxicity at 70.5 h came to 15.8%.

As to `Nc1ccnc(N2C[C@@H]3CC[C@H](C2)N(CC2CCC2)C3=O)n1`, the cytotoxicity at 70.5 h is -3.52%.

Consider `O=C(NC1CCCN(c2ncccn2)C1)c1ccoc1` (stereo unspecified), for which the cytotoxicity at 70.5 h is -1.17%.

Consider `Cc1cccc(C(=O)N2CCn3cc(CNC(=O)CC4CC4)nc3C2)n1`, for which the cytotoxicity at 70.5 h was -4.69%.

Turning to `CS(=O)(=O)N1C[C@@H](O)[C@H](N2CCN(c3ccccc3)CC2)C1`, the cytotoxicity at 70.5 h came out at 22.6%.

In the case of `COc1ncccc1CNC(=O)c1c[nH]c(=O)c(Br)c1`, the cytotoxicity at 70.5 h was -4.91%.

As for `CCNc1cc2c(nn1)CCN(C(=O)CCc1c(C)noc1C)C2`, the cytotoxicity at 70.5 h was determined as 18.9%.

As for `Cc1nn(C(C)C)c(C)c1S(=O)(=O)Nc1cccc(C(=O)O)c1`, the cytotoxicity at 70.5 h was -5.93%.

Take `O=C(NC1CCN(C(=O)C2CCCCC2)C1)c1ccncc1Cl` (stereo unspecified): the cytotoxicity at 70.5 h is -9.33%.

As to `COCC(=O)NCc1cccnc1-n1cnc2ccccc21`, the cytotoxicity at 70.5 h was -0.396%.

Turning to `CC(C)(C(=O)NCCC(=O)O)c1cccc(Br)c1`, the cytotoxicity at 70.5 h was -12.3%.

For the molecule `CCC(C)Oc1ccccc1CN1Cc2ncccc2C1=O` (stereo unspecified), the cytotoxicity at 70.5 h worked out at 0.0852%.

As to `Cc1nc(C(=O)N2CCc3[nH]nc(Nc4ccccc4)c3C2)co1`, the cytotoxicity at 70.5 h is -1.67%.

On to `O=C(Nc1ccccn1)C1CCN(C(=O)COc2ccccc2F)C1` (stereo unspecified), for which the cytotoxicity at 70.5 h came out at 18.6%.

On to `CNCc1ccc(OCc2ccc3c(c2)OCCO3)cc1`, for which the cytotoxicity at 70.5 h was -3.57%.

Turning to `CNC(=O)CN1C(=O)CCC12CCCN(Cc1cccc(F)c1)C2` (stereo unspecified), the cytotoxicity at 70.5 h is -6.75%.

For `Cc1cc(NC(=O)CN2CCCC(Cn3cncn3)C2)no1` (stereo unspecified), the cytotoxicity at 70.5 h was -3.46%.

In the case of `Cc1ccnc(OC[C@]23COC[C@H]2CN(C(=O)c2cnccn2)C3)n1`, the cytotoxicity at 70.5 h is 14.9%.

Take `COCCc1noc(CN(C)c2nc(C)cc(C)n2)n1`: the cytotoxicity at 70.5 h was -9.27%.

For `O=C1CCC(=O)c2oc3ccccc3c2N1`, the cytotoxicity at 70.5 h is -5.85%.

`COc1c(CNCCC(=O)NC2CCCC2)c(C(C)C)nn1C`: the cytotoxicity at 70.5 h is 0.44%.

In the case of `Cc1cccc(C)c1Oc1ncccc1CNC(=O)C1COC(=O)N1` (stereo unspecified), the cytotoxicity at 70.5 h was -21.8%.

For the molecule `COc1ccc(Cn2cc(C(=O)N(C)Cc3cnccn3)nn2)cc1`, the cytotoxicity at 70.5 h is -14.3%.

`Cc1ccc(N2CCCN(C(=O)c3n[nH]c4c3CCC4)CC2)nn1`: the cytotoxicity at 70.5 h worked out at 1.32%.

For the molecule `COc1cccc(N2CCN(CC(O)c3cc(C)ccc3C)CC2)c1` (stereo unspecified), the cytotoxicity at 70.5 h was determined as 30.4%.

`Cc1cccc(C(=O)N2C[C@@H]3[C@H](CC(=O)NC(C)C)[C@@H]3C2)n1`: the cytotoxicity at 70.5 h is -9.84%.

Take `COC(=O)N1CCC(NC2CCSCC2)C1` (stereo unspecified): the cytotoxicity at 70.5 h amounted to 0.96%.

As to `CS(=O)(=O)CCCC(=O)N1CCN(CC2CC2)c2ccccc21`, the cytotoxicity at 70.5 h is -7.11%.

Regarding `C=C(C)CN1CCC(NC(=O)Nc2cc(C(N)=O)ccc2OC)CC1`, the cytotoxicity at 70.5 h is -2.27%.

Take `COCCNC(=O)Cn1c(-c2cccc(F)c2)nc(C)c(CCO)c1=O`: the cytotoxicity at 70.5 h is -7.96%.

For `COc1cccc(-c2ncc(CN3CCOCC(O)C3)s2)c1` (stereo unspecified), the cytotoxicity at 70.5 h is -6.59%.

On to `COCCS(=O)(=O)N1CCN(c2cccc(O)c2)CC1`, for which the cytotoxicity at 70.5 h was -2.61%.

In the case of `COc1ccc2c(c1)CCCN2Cc1nc2c(cnn2C)c(=O)[nH]1`, the cytotoxicity at 70.5 h is -11.4%.

On to `COCCN1CCc2cc(C(=O)N(C)C)c(NC(C)C)nc2CC1`, for which the cytotoxicity at 70.5 h is -8.98%.

Take `Cc1cccc(-c2ccc(C(=O)NCC3CCOC3)c(=O)[nH]2)c1` (stereo unspecified): the cytotoxicity at 70.5 h was -28.7%.

In the case of `CNc1cccc(CC2COCCN(C(=O)c3cccnc3)C2)n1` (stereo unspecified), the cytotoxicity at 70.5 h is -3.83%.

In the case of `COCCNc1ccc(CC2CCNC2)cn1` (stereo unspecified), the cytotoxicity at 70.5 h was -5.62%.

For `CCC(=O)Nc1c(C)nn(COc2cccc(F)c2)c1C`, the cytotoxicity at 70.5 h is -2.04%.

`COc1ccc(N(C)C(=O)c2ccc(Cl)c(S(C)(=O)=O)c2)cn1`: the cytotoxicity at 70.5 h was -2.77%.

Take `CCOCC(=O)N1CCC(Oc2ccc(Cl)cn2)CC1`: the cytotoxicity at 70.5 h was -4.45%.

Take `Cc1cc(C)cc(-c2cccc(CC3(C(=O)O)CCOCC3)c2)c1`: the cytotoxicity at 70.5 h came out at 43.6%.

As to `CC(C)NC(=O)c1ccc2c(c1)nc1n2CCN(C(C)C)C1`, the cytotoxicity at 70.5 h was -13.4%.

As for `CC(C)OCCCN1CCCC(c2nc3ccccc3n2C(C)C)C1` (stereo unspecified), the cytotoxicity at 70.5 h turned out to be 13.2%.

Take `CCS(=O)(=O)N1CCC2(CC1)CN(Cc1ccccn1)C(=O)CO2`: the cytotoxicity at 70.5 h was -11.1%.

Take `Cc1cn[nH]c1C1COCCN1Cc1c[nH]cn1` (stereo unspecified): the cytotoxicity at 70.5 h was determined as 4.32%.

For `COc1cccc(-c2cc(NCC(=O)O)nc3[nH]ccc23)n1`, the cytotoxicity at 70.5 h was found to be 15.1%.

As to `CC(C)(C)CN1Cc2cc3c(cc2NCCC1=O)OCO3`, the cytotoxicity at 70.5 h amounted to 23.7%.

Consider `O=C(NC1CC1)[C@H]1C[C@H]2OCC[C@H]2N(CC2CC2)C1`, for which the cytotoxicity at 70.5 h came to 13.9%.

For `CCn1c(CN2CCOC(Cn3cncn3)C2)nc2cc(F)ccc21` (stereo unspecified), the cytotoxicity at 70.5 h worked out at 0.647%.

Regarding `CCN(Cc1cccs1)C(=O)c1ccc(=O)n(C)c1`, the cytotoxicity at 70.5 h was 1.17%.

With `Cc1noc(C)c1CN1CCN(C(=O)C(C(C)C)n2cncn2)CC1` (stereo unspecified), the cytotoxicity at 70.5 h was found to be 2.25%.

Regarding `CN(Cc1ccc(C#N)cc1)Cc1noc(C(C)(C)C)n1`, the cytotoxicity at 70.5 h was -10.4%.

As to `CCNC(=O)COc1cc(CC)c2c(C)nn(-c3ccc(C)cc3)c2n1`, the cytotoxicity at 70.5 h was -3.18%.

Turning to `CCCn1ccc2cc(NC(=O)NCCn3cnnc3CC)ccc21`, the cytotoxicity at 70.5 h is -9.53%.

As for `Cc1sc2nc(CCN)nc(N3CCN(S(C)(=O)=O)CC3)c2c1C`, the cytotoxicity at 70.5 h is -8.4%.

Take `O=C(NCC(O)COc1ccccc1)C1(c2ccc(F)cc2)CC1` (stereo unspecified): the cytotoxicity at 70.5 h was -10.3%.

For the molecule `O=C1CC(c2cccs2)c2sc(C(=O)O)c(-c3ccccc3)c2N1` (stereo unspecified), the cytotoxicity at 70.5 h is -9.97%.

Regarding `Cc1nc(C2CCCN2Cc2ccn(C)c(=O)c2)no1` (stereo unspecified), the cytotoxicity at 70.5 h came out at 0.568%.

`O=C(O)[C@@H]1CN(Cc2cc3c(cc2Cl)OCO3)C[C@H]1C1CC1`: the cytotoxicity at 70.5 h was -1.73%.

Take `CC(C)(O)CN1CCN(C(=O)c2cccc3[nH]ncc23)CC1`: the cytotoxicity at 70.5 h was -1.27%.

Consider `COc1ccc(Cn2ccnc2)cc1F`, for which the cytotoxicity at 70.5 h is -10.7%.

Take `CC(C)CC(=O)N1CCC2(CC1)OCCO2`: the cytotoxicity at 70.5 h was -6.38%.

As to `Cc1cccc(CN2CC3C[C@]3(NC(=O)c3cccc(F)c3)C2)n1` (stereo partly specified), the cytotoxicity at 70.5 h was -12.2%.

In the case of `CCCc1nc(N2CC[C@@H](c3ccc4ccccc4c3)[C@H](O)C2)no1`, the cytotoxicity at 70.5 h was -0.24%.

`Cc1ncncc1C(=O)N1CCCN(Cc2nccn2C(C)C)CC1`: the cytotoxicity at 70.5 h was -8.96%.
